The subject of assay [1] is P-selectin mediated interaction of B16.F10 cells with activated platelets. As to the kind of experiment: Binding of calcein-labeled TRAP-14 activated platelets to B16.F10 cells. It is filed as cell-based, mouse. To be noted: cells treated with 450 μM LysoPC for 48 h. How it is done:
Platelet isolation: Platelets from blood of healthy volunteers were separated, routinely tested for viability, and activated by TRAP-14 (Bachem GmbH, Weil am Rhein, Germany) as recently described (Fritzsche, J. et al., Thromb. Haemost. 100:1166-1175 (2008)). Isolated platelets were stored at 37° C. in a water bath.
B) Binding of calcein-labeled TRAP-14 activated platelets to B16.F10 cells treated with 450 μM LysoPC for 48 h was analyzed by fluorescence microscopy. […] Data represent means±SD from three independent experiments. P, resting platelets; aP, activated platelets; LysoPC, LysoPC treated B16.F10 cells; Ab, Ig-matched control antibody.

For assay [2], the system named is B16.F10 ELN melanoma cells. As to the kind of experiment: In vivo bioluminescence imaging of metastatic spread. Also on record: species or system mouse. The following applies: measured once weekly. How it is done:
Metastatic spread was also measured once weekly by in vivo bioluminescence as described previously (Jantscheff, P. et al., Prostate 69:1151-1163 (2009)). Overlays of in vivo images and mouse photographs allowed to localize the metastatic lesions in lung and at the injection sites (D: black arrows) even in late images (D: day 14).

For another assay, the system named is B16.F10 cells. As to the kind of experiment: Fatty acid composition of cell lysates by GC analysis. It is filed as cell-based, mouse. The procedure: Determination of fatty acid composition in cells and culture medium: Lipid extraction was performed according to the modified method of Bligh and Dyer (Bligh, E. G. and Dyer, W. J., Can. J. Biochem. Physiol. 37:911-917 (1959). For derivatization, the dried lipid extracts were subjected to methanol and TMSH and heated up to 100° C. for 10 min (Techne Dri Block DB-3D Techne, Stone, UK). Gas chromatography analysis was performed by an HP 5890 Series II Plus equipped with autosampler GC/SFC injector and flame ionisation detector (FID) with helium as carrier gas at 1 ml/min. Oven temperature program started with 150° C. for 3 min, up to 220° C. with a rate of 5° C./min, 220° C. for 3.5 min, split injection (split flow 100 ml/min, split ratio 1:100), 5 μl of injection volume, injector temperature 260° C. and FID at 280° C. on an Agilent DB-23 column (30 m, 0.25 mm ID, 0.25 μm). Integration of peak areas was performed with the HP software HP GC ChemStation (Rev.A.06.03[509]) running the GC system. Identification of peaks was accomplished by comparison to a fatty acid standard mixture.
Example 3: Cell membrane alterations induced by LysoPC treatment. In order to analyze membrane alterations caused by exogenous LysoPC the kinetics of changed fatty acid profiles of B16.F10 cells were evaluated by GC analysis. […] Between 48 h and 72 h, a plateau was apparently reached (C17:0: ˜55%). […]

In the case of `CCCCCCCCCCCCCCCCC(=O)OC[C@@H](O)COP(=O)([O-])OCC[N+](C)(C)C` [LysoPC], in assay [1], the “interaction of B16.F10 cells with activated platelets” value is on record as “significantly (p<0.001) reduced P-selectin mediated interaction with activated platelets to the level of resting cells”. In assay [2], the “quantification of metastatic spread by in vivo bioluminescence, differences LysoPC-treated vs untreated” value is recorded as “could not confirm”. The “reduction of fatty acid ratio after replacing LysoPC medium” value with B16.F10 cells (48 h after incubation in LysoPC-free DMEM medium) is on record as 10-15%. Besides, the “membrane composition on repeated feeding” value in the assay with B16.F10 cells (repeated feeding (up to six times) every 48 h) is recorded as “did not further change the membrane composition”.

These data come from US20130012473A1, “COMBINED USE OF PHOSPHOLIPID AND SULFATE GROUPS-CARRYING POLYSACCHARIDES FOR INHIBITING METASTATIC SPREAD” (KTB TUMORFORSCHUNGSGESELLSCHAFT MBH, priority 2010, published 2013).
